# Laboratory results as given in PubChem BioAssay (NCI).
# Several values for one entry are separate records, joined by “and”; a condition that tells them apart may be missing. Identical values can stand only once.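 1) Cells in 96-well plates. 2) Compound, 48 h, 5 concentrations. 3) Linear interpolation between surrounding doses. 4) Unreached endpoint = highest concentration. Abbreviation: GI50, concentration required for 50% inhibition of growth. TGI is the concentration that stops growth completely.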
# Assays:
# Test in all cases: inhibition of tumour cell growth, NCI panel, 48 h
# MDA-MB-435 = test system: MDA-MB-435
# T-47D breast = test system: T-47D breast
# UACC-257 melanoma = test system: UACC-257 melanoma
# SNB-75 CNS = test system: SNB-75 CNS
# HOP-92 NSCLC = test system: HOP-92 NSCLC
# HT29 colon = test system: HT29 colon
SMILES,GI50 (MDA-MB-435),TGI (MDA-MB-435),GI50 (T-47D breast),TGI (T-47D breast),GI50 (UACC-257 melanoma),TGI (UACC-257 melanoma),GI50 (SNB-75 CNS),TGI (SNB-75 CNS),GI50 (HOP-92 NSCLC),TGI (HOP-92 NSCLC),GI50 (HT29 colon),TGI (HT29 colon)
O=C1/C(=C/C(Cl)=C/c2ccccc2)SC(=S)N1CCc1ccc(O)cc1,1.61 µM,4.27 µM,2.02 µM,5.61 µM,1.39 µM,3.61 µM,1.31 µM,5.62 µM,3.18 µM,21.6 µM,2.11 µM,5.57 µM
O=C1/C(=C/c2ccc(Cl)cc2)CN(C(=O)C(Cl)Cl)C/C1=C\c1ccc(Cl)cc1,0.194 µM,0.396 µM,0.297 µM,1.62 µM,0.465 µM,1.55 µM,0.161 µM,0.509 µM,0.249 µM,1.01 µM,0.0714 µM,1.43 µM
COC(=O)C#Cc1ccc([N+](=O)[O-])cc1,–,5.57 µM,–,11.4 µM,–,7.12 µM,–,7.34 µM,–,4.11 µM,–,3.23 µM
COc1cnc2c(c1)C(=O)c1c-2n(CCCN2CCN(C)CC2)c(=O)c2cc(Cl)ccc12,1.53 µM,3.14 µM,22.8 µM,98.7 µM,4.04 µM,22.3 µM,0.932 µM,17.6 µM,4.68 µM,29.8 µM,1.37 µM,> 100 µM
Clc1ccc(CO/N=C(\Cn2ccnc2)c2ccc(Cl)cc2Cl)c(Cl)c1,1.66 µM,3.19 µM,1.77 µM,3.36 µM,1.68 µM,3.18 µM,1.65 µM,3.22 µM,1.15 µM,2.53 µM,1.65 µM,3.33 µM
Cn1cnc2c(NCc3ccccc3)nc(NCCO)nc21,114 µM,313 µM,206 µM,> 408 µM,155 µM,> 474 µM,64.7 µM,70.8 µM and 150 µM,138 µM,> 90.2 µM and 375 µM,83.6 µM,336 µM
Cc1ccc(NC(=O)c2ccnc(N3CCCC3)c2)cc1-c1ccc(C(=O)NCC2CC2)cc1,> 25 µM,> 25 µM,> 13.5 µM,> 25 µM,> 25 µM,> 25 µM,> 21.7 µM,> 25 µM,8.2 µM,> 25 µM,> 25 µM,> 25 µM
Cc1ccc(C(=O)NC2CCCCC2)cc1-c1ccc(C(=O)NCC2CC2)cc1,> 25 µM,> 25 µM,9.51 µM,> 25 µM,> 25 µM,> 25 µM,> 25 µM,> 25 µM,6.02 µM,> 25 µM,> 25 µM,> 25 µM
CO[C@H]1CC[C@@]2(C)C(=CC[C@H]3[C@@H]4C[C@H](O)C[C@@]4(C)CC[C@@H]32)C1,1.26 µM,6.89 µM,8.33 µM,31.8 µM,4.89 µM,17.9 µM,3.41 µM,23 µM,1.38 µM,18.1 µM,3.59 µM,12.4 µM
COC(=O)N/N=C(\C)C(CN1CCOCC1)C(c1ccccc1)c1cc2ccccc2oc1=O (centres undefined),–,> 100 µM,–,> 100 µM,–,> 100 µM,–,> 100 µM,–,> 100 µM,–,> 100 µM
COC(=O)Nc1nc2ccc(Oc3ccc(NC(=O)Nc4cccc(Cl)c4)cc3)cc2[nH]1,0.0755 µM,0.315 µM,1.02 µM,5.65 µM,1.7 µM,19.5 µM,0.689 µM,8.36 µM,0.853 µM,5.47 µM,0.682 µM,3.48 µM
COc1ccc(-c2nc(-c3nc4cc(C)c(C)cc4[nH]3)cc3c2[nH]c2ccccc23)cc1,3.97 µM,> 100 µM,3.09 µM,7.92 µM,3.47 µM,14.4 µM,3.44 µM,35 µM,–,–,3.76 µM,> 100 µM
COc1cc2c(cc1OC)[C@@]1(C)C(=O)c3cc4c(cc3[C@H]1N(C)C2=O)OCO4,> 100 µM,> 100 µM,37.9 µM,> 100 µM,23.7 µM,91.9 µM,–,–,28.8 µM,> 100 µM,88 µM,> 100 µM
CC1(C)C2CCC13C(=O)C1OC3(C2)C2C(=O)c3c(O)ccc(O)c3C(=O)C12 (centres undefined),34.9 µM,> 74.5 µM,36.7 µM,> 64.8 µM,32.7 µM,> 66.7 µM,> 44.4 µM,> 69.3 µM,17.8 µM,46.8 µM,34.1 µM,> 83.4 µM
COC(=O)c1c2c(c(C)[n+]([O-])c1C)C(=O)C(NCc1ccc(F)c(F)c1)=CC2=O,1.7 µM,3.15 µM,1.75 µM,4.33 µM,1.13 µM,2.96 µM,2.15 µM,7.58 µM,2.81 µM,6.43 µM,1.15 µM,7.61 µM
Cc1cccc(N=C2c3cc([N+](=O)[O-])ccc3-c3c2cc([N+](=O)[O-])cc3[N+](=O)[O-])c1,3.49 µM,10.8 µM,1.99 µM,4.78 µM,6.81 µM,34.5 µM,4.59 µM,42.4 µM,2.47 µM,7.17 µM,4.11 µM,27.6 µM
NC(=O)Oc1cc(OC(N)=O)cc(N(CCCl)CCCl)c1,11.4 µM,28.9 µM,7.78 µM,> 100 µM,12.1 µM,53.6 µM,2.71 µM,25.3 µM,0.849 µM,7.87 µM,10.8 µM,51.4 µM
CC(C)(O)[C@H]1[C@@H]2OC(=O)[C@H]1[C@]1(O)C[C@H]3OC34C(=O)O[C@H]2[C@@]41C (some centres undefined) (tested in a mixture with another compound),–,> 100 µM,–,> 100 µM,–,> 100 µM,–,> 100 µM,–,> 100 µM,–,> 100 µM
O=C(O)c1cccc(CC(Br)C(=O)O)c1 (centres undefined),–,> 100 µM,–,> 100 µM,–,> 100 µM,–,> 100 µM,–,> 100 µM,–,> 100 µM
C/C(=C\c1c[nH]c2ccccc12)[N+](=O)[O-],5.56 µM,20.1 µM,4.27 µM,22.2 µM,4.89 µM,17.1 µM,1.89 µM,6.93 µM,–,–,3.02 µM,12.9 µM

SMILES,GI50 (MDA-MB-435),TGI (MDA-MB-435),GI50 (T-47D breast),TGI (T-47D breast),GI50 (UACC-257 melanoma),TGI (UACC-257 melanoma),GI50 (SNB-75 CNS),TGI (SNB-75 CNS),GI50 (HOP-92 NSCLC),TGI (HOP-92 NSCLC),GI50 (HT29 colon),TGI (HT29 colon)
COc1cc(C(=O)n2nc(N3CCN(C)CC3)c3cc(N)ccc32)cc(OC)c1OC,1.91 µM,5.4 µM,> 100 µM,> 100 µM,28.5 µM,> 100 µM,4.39 µM,> 100 µM,6.4 µM,> 100 µM,3.65 µM,14.9 µM
C/C(=C\c1ccn(-c2ccc(N)cc2)n1)[C@@H]1C[C@@H]2O[C@]2(C)CCC[C@H](C)[C@H](O)[C@@H](C)C(=O)C(C)(C)[C@@H](O)CC(=O)O1,–,–,0.028 µM,> 50 µM,–,–,0.00754 µM,0.233 µM,–,> 50 µM,0.0187 µM,> 50 µM
COc1ccc(Nc2ccnc(NCCCNc3ccnc4cc(Cl)ccc34)n2)cc1,0.243 µM,0.705 µM,1.55 µM,3.71 µM,1.33 µM,2.75 µM,0.903 µM,2.14 µM,0.632 µM,2.65 µM,0.393 µM,2.2 µM
O=C1C=CC2(C=C1)CCN=c1c(O)c3c(c(O)c12)=NC=N3,–,–,–,25.2 µM and > 100 µM,–,21.6 µM and > 100 µM,17.8 µM and > 100 µM,35.2 µM and > 100 µM,14.8 µM and > 100 µM,28.9 µM and > 100 µM,20.3 µM and > 100 µM,47.3 µM and > 100 µM
COC1CC2CCC(C)[C@](O)(O2)C(=O)C(=O)N2CCCCC2C(=O)OC(C(C)CC2CCC(O)C(OC)C2)CC(=O)C(C)C=C(C)C(OC(=O)CN(C)C)C(OC)C(=O)C(C)CC(C)/C=C/C=C/C=C\1C (some centres undefined),–,19.2 µM,–,25 µM,–,24.1 µM,–,–,–,21.6 µM,–,20.2 µM
CCN(CC)CCOc1cc2c(C(=O)OC)c(C)oc2cc1C(C)=O,16.1 µM,33.9 µM,2.25 µM,7.75 µM,13 µM,31.7 µM,–,–,–,–,17 µM,94.9 µM
O=C(Nc1ccc(Br)c(Cl)c1)c1cc(F)ccc1O,1.01 µM,> 15.8 µM,0.638 µM,13.4 µM,0.526 µM,2.79 µM,0.591 µM,4.53 µM,0.121 µM,0.755 µM,1.71 µM,8.35 µM
CC/C(=C(\CC)c1ccc(OCCN(CC)CC)cc1)c1ccc(OCCN(CC)CC)cc1,1.86 µM,7.28 µM,2.65 µM,6.73 µM,1.23 µM,2.82 µM,2.83 µM,11 µM,0.879 µM,4.72 µM,0.0759 µM,3.78 µM
ON(CCc1ccccn1)Cc1ccccc1,–,> 100 µM,–,> 100 µM,–,> 100 µM,–,> 100 µM,–,> 100 µM,–,> 100 µM
CC[C@H](C)C(=O)O[C@H]1CCC=C2C=C[C@H](C)C(CCC3C[C@@H](O)CC(=O)O3)[C@H]21 (some centres undefined),39.3 µM,> 100 µM,–,> 100 µM,> 100 µM,> 100 µM,1.33 µM,7.85 µM,0.236 µM,5.59 µM,29 µM,> 100 µM
CCCC(=O)NNc1[nH]c(-c2ccc(OC)cc2)cc1C(=O)OCC,15.6 µM,31.6 µM,15.3 µM,48.6 µM,1.6 µM,14.8 µM,15.4 µM,29.4 µM,18.6 µM,35.5 µM,17.4 µM,34.3 µM
O=C(O)CC1(C(=O)O)CCCCC1,–,> 100 µM,–,> 100 µM,–,> 100 µM,–,> 100 µM,–,> 100 µM,–,> 100 µM
C[C@]12CCC(=O)C=C1CC[C@@H]1[C@@H]2CC[C@]2(C)C(=O)/C(=C/c3cccc(OCCN4CCOCC4)c3)C[C@@H]12,4.92 µM,21.8 µM,2.9 µM,> 100 µM,6.13 µM,19 µM,12 µM,31.9 µM,10.2 µM,31.7 µM,2.87 µM,16.2 µM
CC(C)=CCC/C(C)=C/CC/C(=C/COP(=O)(OCc1ccc([N+](=O)[O-])o1)N(C)CCCCCl)C(C)(C)C (centres undefined),10.1 µM,30.8 µM,16.4 µM,51.5 µM,10.8 µM,27.6 µM,15.6 µM,40 µM,12.8 µM,25.4 µM,12.5 µM,38.9 µM
Cc1ccc2sc3c(NCCCNCCO)nc4ccccc4c3c(=O)c2c1,1.74 µM,3.27 µM,1.59 µM,3.43 µM,1.87 µM,3.76 µM,1.2 µM,2.5 µM,1.28 µM,3.78 µM,1.67 µM,3.36 µM
O=C(/C=C\Sc1nccc(C(F)(F)F)n1)c1ccc(Br)cc1,26.2 µM,78 µM,11.2 µM,38.5 µM,56.4 µM,> 100 µM,28.9 µM,> 100 µM,–,–,19.6 µM,41.6 µM
O=C(Cn1ccnc1[N+](=O)[O-])NCC(F)(F)C(F)(F)F,> 100 µM,> 100 µM,> 100 µM,> 100 µM,> 100 µM,> 100 µM,> 100 µM,> 100 µM,> 100 µM,> 100 µM,> 100 µM,> 100 µM
CCOC(=O)c1c(Cl)c2c(n1Cc1cc(OC)cc(OC)c1)-c1oncc1CCC2,–,–,0.445 µM,> 100 µM,0.92 µM,> 100 µM,0.229 µM,4.41 µM,0.335 µM,28.6 µM,0.314 µM,68 µM
CC(=O)OCC1OC(S[As](C)C)C(OC(C)=O)C1OC(C)=O (centres undefined),0.0672 µM,0.301 µM,0.62 µM,17.3 µM,1.57 µM,7.06 µM,0.511 µM,1.99 µM,0.328 µM,2.57 µM,–,–
Cc1ccc(S(=O)(=O)n2cc(C(=O)C(=O)Nc3ccncc3)c3ccccc32)cc1,–,–,4.93 µM,> 100 µM,9.03 µM,98.1 µM,1.72 µM,16.3 µM,0.644 µM,7.01 µM,0.464 µM,12.1 µM
